Read-outs that look alike come from different tables or passages of the source.
Key:
AIM HIGH participants [1] = test: AIM-HIGH randomized double blind clinical trial, primary composite endpoint of CVD events, also segregated by Hp type; assay type: in vivo, human; settings: DM participants
Excerpt: AIM-HIGH (clinicaltrials.gov NCT00120289) was a randomized double blind clinical trial which set out to test the HDL hypothesis—that raising HDL would reduce CVD events. This hypothesis was based on epidemiological data showing that individuals with higher HDL had lower CVD. AIM-HIGH set out to raise HDL via the drug niacin. […] All participants received simvastatin. The primary endpoint was the first event of the composite of death from coronary heart disease, nonfatal myocardial infarction, ischemic stroke, hospitalization for an acute coronary syndrome, or symptom driven coronary or cerebral revascularization.
Hp typing was performed by the inventors using polyacrylamide gel electrophoresis. Data on Hp typing was returned to the AIM HIGH coordinating center which provided the event rates in these participants segregated by Hp type and treatment (monotherapy with statins only or combination therapy with statins plus niacin).

[2] = for HDL Y1 (mean) / LDL Y1 (mean) / TG Y1 (mean): year 1
Excerpt: AIM-HIGH (clinicaltrials.gov NCT00120289) was a randomized double blind clinical trial which set out to test the HDL hypothesis—that raising HDL would reduce CVD events. This hypothesis was based on epidemiological data showing that individuals with higher HDL had lower CVD. AIM-HIGH set out to raise HDL via the drug niacin. The 3414 participants in AIM HIGH were randomly assigned to receive extended release niacin […] vs placebo. All participants received simvastatin. The primary endpoint was the first event of the composite of death from coronary heart disease, nonfatal myocardial infarction, ischemic stroke, hospitalization for an acute coronary syndrome, or symptom driven coronary or cerebral revascularization.
70 Hp 1-1 and 70 Hp 2-2 DM AIM HIGH participants, with half in the niacin and half in the placebo group, were randomly selected by the AIM HIGH coordinating center for analysis for HDL metrics at baseline and one year into the study.

[3] = system: Murine macrophage J774 cells; settings: Hp 1-1 group, baseline vs 1 year on niacin
Description: Serum induced reverse cholesterol transport function and HDL antioxidant function were measured in 70 Hp 1-1 and 70 Hp 2-2 participants from the AIM HIGH study at baseline and at one year after randomization to placebo or niacin.
This AIM HIGH substudy was approved by the AIM HIGH steering committee and was designed to investigate whether the Hp phenotype influenced HDL functional metrics in DM participants in AIM HIGH. All 1140 DM participants in AIM HIGH were subjected to Hp phenotyping. Functional HDL metrics (RCT and antioxidant function) was evaluated at baseline and at one year of treatment in 70 Hp 1-1 and 70 Hp 2-2 DM individuals with half in the niacin and half in the placebo group. In 20 Hp 1-1 and 20 Hp 2-2 DM individuals the amount of Hb associated with the HDL at baseline was measured. […]
Measurement of HDL efflux capacity was performed as previously described. […] Liquid scintillation counting was then determined in 500 μl of the medium collected from each well as well as in the cells after washing the cells twice with PBS and lysing them in 0.1 N NaOH. Cholesterol efflux capacity was determined as the percentage efflux of total counts per minute in the medium divided by the total counts per minute in the medium and in the cells and after subtraction of the nonspecific efflux obtained in cells incubated in the absence of serum.

ApoB depleted serum = system: ApoB depleted serum
Description: (§1) This AIM HIGH substudy was approved by the AIM HIGH steering committee and was designed to investigate whether the Hp phenotype influenced HDL functional metrics in DM participants in AIM HIGH. All 1140 DM participants in AIM HIGH were subjected to Hp phenotyping. Functional HDL metrics (RCT and antioxidant function) was evaluated at baseline and at one year of treatment in 70 Hp 1-1 and 70 Hp 2-2 DM individuals with half in the niacin and half in the placebo group. In 20 Hp 1-1 and 20 Hp 2-2 DM individuals the amount of Hb associated with the HDL at baseline was measured. Individuals performing all functional assays were blinded to treatment assignment of all samples used for this study.
(§2) The amount of total oxidation and HDL anti-oxidant function were assessed in apolipoprotein (apo)-B depleted serum using the fluorescent and oxidation-sensitive agent dihydrorhodamine 123 (DHR). Apo-B depleted serum was prepared using polyethylene glycol (PEG) as previously described in Asztalos BF, de la Llera-Moya M, Dallal G E, Horvath K V, Schaefer E J, Rothblat G H. Differential effects of HDL subpopulations on cellular ABCA1- and SR-BI-mediated cholesterol efflux. J Lipid Res. 2005; 46:2246-2253
(§3) Briefly-serum samples were treated with PEG solution to precipitate apoB-containing lipoproteins by adding 40 parts PEG solution (20% PEG in 200 mM glycine buffer, pH 7.4) to 100 parts serum. After a 20 min incubation, the precipitate was removed by high-speed centrifugation (10,000 rpm, 30 min, 4° C.) to obtain the PEG supernatant containing the HDL lipoprotein fraction.
(§4) Duplicates of 20 μl of apo-B-depleted serum were transferred to clear-bottom 96-well plates, and 180 μl of iron-free Hepes-buffered saline (HBS) containing 50 μM DHR was then added. Immediately after the addition of DHR, the kinetics of fluorescence increase was followed in a BMG Galaxy Fluostar microplate reader at 37° C. with a 485/538 nm excitation/emission filter pair with repeated readings every 2 minutes up to 40 minutes. Total oxidation was calculated as the rate of DHR oxidation (fluorescent units (FU)/min) for each duplicate after subtracting the rate of DHR oxidation observed using the same conditions but in the absence of serum.

HDL [4] = system: HDL
Description: as §1, §2, §3, §4
HDL anti-oxidation function represents a fraction of the total oxidation prevented by HDL (in which case HDL is behaving as an antioxidant) or provoked by HDL (in which case HDL is behaving as a pro-oxidant) within each sample. To calculate HDL anti-oxidant function, HDL was depleted by immunoprecipitation from apo-B-depleted serum using anti-human apoA1 antibody and protein A/G Sepharose, before duplicates of corrected volumes of remnant apo-B- and Apo-A-depleted serum were transferred to 96-well plates and the rate of DHR oxidation measured in the identical manner and in parallel with the measurement of total oxidation as described above.

AIM HIGH participants [5] = settings: cited from earlier work
[6] = all participants; increased from mean of 35 mg/dl; cited from earlier work
HDL [7] = settings: Hp 2-2 DM individuals; three independent studies; cited from earlier work
[8] = Hp 2-2 genotype individuals with diabetes mellitus; cited from earlier work
[9] = a little more than a year of treatment; cited from earlier work
[10] = patients who had a recent acute coronary syndrome; cited from earlier work
[11] = Hp 1-1 niacin group, at one year vs baseline
[12] = Hp 2-2 niacin group, at one year vs baseline

For `CCC(C)(C)C(=O)O[C@H]1C[C@@H](C)C=C2C=C[C@H](C)[C@H](CC[C@@H]3C[C@@H](O)CC(=O)O3)[C@H]21` [Simvastatin], the “% Primary Event, % of N in this category” value (AIM HIGH participants [1]; HP1-1) was “(24.0%)”, the “Event Rate” value (AIM HIGH participants [1]; HP1-1) was 0.0803 and the “N Primary Event” value (AIM HIGH participants [1]; HP1-1) was 23. For the same molecule, the “% Primary Event, % of N in this category” value (AIM HIGH participants [1]; HP2-1) was “(17.9%)”, the “Event Rate” value (AIM HIGH participants [1]; HP2-1) was 0.0582 and the “N Primary Event” value (AIM HIGH participants [1]; HP2-1) was 46. For the same molecule, the “% Primary Event, % of N in this category” value (AIM HIGH participants [1]; HP2-2) was “(16.3%)”, the “Event Rate” value (AIM HIGH participants [1]; HP2-2) was 0.0532 and the “N Primary Event” value (AIM HIGH participants [1]; HP2-2) was 33.

For `O=C(O)c1cccnc1` [niacin, pyridine-3-carboxylic acid], the “HDL Y1 (mean)” value ([2]; Hp 11 niacin group, HDL base 33.91) was 40.94, the “LDL Y1 (mean)” value ([2]; Hp 11 niacin group, LDL base 81.18) was 67.71 and the “TG Y1 (mean)” value ([2]; Hp 11 niacin group, TG base 193.12) was 174.97. For the same molecule, the “HDL Y1 (mean)” value ([2]; Hp 22 niacin group, HDL base 33.74) was 43.29, the “LDL Y1 (mean)” value ([2]; Hp 22 niacin group, LDL base 65.91) was 64.15 and the “TG Y1 (mean)” value ([2]; Hp 22 niacin group, TG base 211.88) was 164.50. The “HDL mass (in words)” value ([2]; both Hp 1-1 and Hp 2-2 DM individuals) was “significant increase in HDL mass”, the “increase in median efflux” value [3] was 14% and the “change in total oxidation (in words)” value (ApoB depleted serum; Hp 1-1 individuals) was “significant decrease”. The “total oxidation decreased by” value (ApoB depleted serum; [11]) was 19.1±3.4 oxidation units, the “change in total oxidation (in words)” value (ApoB depleted serum; Hp 2-2 individuals) was “significant increase in total oxidation” and the “total oxidation increased by” value (ApoB depleted serum; [12]) was 13.4±5.0 oxidation units. For the same molecule, the “change in HDL antioxidant function (in words)” value (HDL [4]; Hp 1-1 individuals) was “improved”, the “change in HDL antioxidant function (in words)” value (HDL [4]; Hp 1-1 individuals, listed as Niacin) was “increase in HDL antioxidant function” and the “HDL antioxidant function increased by” value (HDL [4]; [11]) was 10.8±2.3 units. The “change in HDL antioxidant function (in words)” value (HDL [4]; Hp 2-2 individuals) was “worsened”, the “change in HDL antioxidant function (in words)” value (HDL [4]; Hp 2-2 individuals, listed as Niacin) was “significant decline in the antioxidant function” and the “HDL antioxidant function decreased by” value (HDL [4]; [12]) was 8.3±2.9 units. The “primary endpoint occurred in patients” value (AIM HIGH participants [5]; all 3414 participants, extended release niacin 1500-2000 g/day, all received simvastatin, mean follow up 3 years) was 282 patients, the “primary endpoint, % of group” value (AIM HIGH participants [5]; all participants, niacin group, all received simvastatin, mean follow up 3 years) was 16.4% and the “HR for primary endpoint” value (AIM HIGH participants [5]; niacin group vs placebo group, all participants) was 1.02. For the same molecule, the “HDL, mean on treatment” value [6] was 42 mg/dL.

In the case of vitamin E, the “RCT function (in words)” value (HDL [7]) is given as “restore and significantly improve RCT function” and the “risk for cardiovascular diseases (in words)” value [8] is given as “reduces the risk for cardiovascular diseases”.

In the case of `CC(C)c1c(C(=O)Nc2ccccc2)c(-c2ccccc2)c(-c2ccc(F)cc2)n1CC[C@@H](O)C[C@@H](O)CC(=O)O` [Atorvastatin®, Atorvastatin], the deaths [9] is given as 51.

In the case of `CCC(CC)CC1(C(=O)Nc2ccccc2SC(=O)C(C)C)CCCCC1` [Dalcetrapib®, S-[2-({[1-(2-ethylbutyl)cyclohexyl]carbonyl}amino)phenyl] 2-methylpropanethioate], the “HDL cholesterol levels (in words)” value [10] is given as “increase HDL cholesterol levels” and the “risk of recurrent cardiovascular events (in words)” value [10] is given as “did not reduce the risk of recurrent cardiovascular events”.

Reference: US20170336420A1, “METHODS AND KITS FOR TREATING CARDIOVASCULAR DISEASES” (RAPPAPORT FAMILY INSTITUTE FOR RESEARCH IN THE MEDICAL …, priority 2014, published 2017)
